Experimental data as given in US20230165831A1, “METHOD AND COMPOSITION FOR RENDERING CANCER CELLS SUSCEPTIBLE TO TREATMENT BY TARGETED ONCOGENETIC DRIVERS” (IMPACT BIOLIFE SCIENCE, INC., priority 2021, published 2023).

Legend:
[1] = system: prostate adenocarcinoma line LNCap cells; assay: CTG (CellTiter-Glo) cell viability assay, 6×6 combo matrix, 72 h, LNCaP;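 also: luminescence signal read after adding CellTiter-Glo reagent, with cells exposed to compounds for 72 h at 37 °C under 5% CO2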
Experimental: (§1) 7) Using complete cell medium, adjust the volume of the suspension to achieve a cell concentration.
(§2) Solid compound of cis-platinum was solubilized in PBS to a stock solution of 3.333 mM.
(§3) Final volume is 100 µL per well at this point.
(§4) 1) Incubate the plates at room temperature and away from light for 30 minutes.
(§5) 3) Add 100 µL /well of CellTiter-Glo® Reagent in each well. Avoid light.
(§6) 4) Mix contents for 2 minutes on an orbital shaker.
(§7) 5) Incubate plate at room temperature for 10 minutes to stabilize the luminescent signal.

[2] = system: pancreatic cancer line Capan-1 cells; assay: CTG (CellTiter-Glo) cell viability assay, 6×6 combo matrix, 72 h, Capan-1; type: cell-based; details: for Relatively Cell inhibition of vehicle control(%): Capan-1
Experimental: To measure the cell inhibition effect of compounds and synergy effect of test articles on ten (10) cell lines using standard CTG assay.
b. A549, T47D, SK-OV-3, MKN45, SK-Hep-1, HT-29, Capan-1, 786-O and LNCaP cell line, for compounds and vehicle groups, the seeding density of cell lines is 3000 cells/80 µL per well. For blank groups, add 100 µL medium. For PBS groups, add 100 µL PBS.
8) Incubate the U87MG, A549, T47D, SK-OV-3, MKN45, SK-Hep-1, HT-29, Capan-1, 786-O and LNCaP cells overnight at 37° C./5% CO2.
5) Incubate the plates at 37° C./5% CO2 for 72 hours.
6) Read plates in Envision.

[3] = system: glioblastoma line U87MG cells; assay: CTG (CellTiter-Glo) cell viability assay, 6×6 combo matrix, 72 h, U87MG;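 also: U87MG cells seeded at 2000 per well, exposed 72 h, viability read by CellTiter-Glo luminescence, inhibition expressed relative to vehicle-treated wells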
[4] = system: ovarian cancer line SK-OV3 cells; assay: CTG (CellTiter-Glo) cell viability assay, 6×6 combo matrix, 72 h, SK-OV-3; details: SK-OV-3;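 also: luminescent signal read after CellTiter-Glo addition, cells exposed to compounds for 72 h at 37 °C under 5% CO2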
[5] = system: breast cancer line T47D cells; assay: CTG (CellTiter-Glo) cell viability assay, 6×6 combo matrix, 72 h, T47D;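 also: luminescence read-out after 72 h at 37 °C under 5% CO2, with medium-only wells as blanks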
[6] = system: lung adenocarcinoma line A549 cells; assay: CTG (CellTiter-Glo) cell viability assay, 6×6 combo matrix, 72 h, A549; details: A549;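 also: luminescent ATP readout with CellTiter-Glo after compound exposure, used to assess growth inhibition and combination synergy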
[7] = system: colorectal cancer line HT29 cells; assay: CTG (CellTiter-Glo) cell viability assay, 6×6 combo matrix, 72 h, HT29; details: HT29;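 also: cells exposed to compounds for 72 hours at 37 °C under 5% CO2, then viability read as luminescence after adding CellTiter-Glo Reagent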
Experimental: as §1, §2, §3, §4, §5, §6, §7

[8] = system: Liver cancer line SK-HEP-1 cells; assay: CTG (CellTiter-Glo) cell viability assay, 6×6 combo matrix, 72 h, SK-Hep-1;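 also: luminescent signal read after 72 h compound exposure at 37 °C under 5% CO2, with medium-only wells serving as blank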
[9] = system: kidney cancer line 786-O cells; assay: CTG (CellTiter-Glo) cell viability assay, 6×6 combo matrix, 72 h, 786-O; details: for Relatively Cell inhibition of vehicle control(%): 786-O;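 as to all read-outs here: luminescence read-out after adding CellTiter-Glo reagent, with cells incubated at 37 °C under 5% CO2 during compound exposure, part of a ten cell line synergy study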
[10] = system: gastric cancer line MKN45 cells; assay: CTG (CellTiter-Glo) cell viability assay, 6×6 combo matrix, 72 h, MKN45;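 also: MKN45 cell viability read as CellTiter-Glo luminescence after 72 h culture at 37 °C under 5% CO2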
[11] = cisplatin 0.048 µM only (myricetin plate)
[12] = cisplatin 1.2 µM only (myricetin plate)
[13] = cisplatin 6 µM only (myricetin plate)
[14] = cisplatin 30 µM only (myricetin plate)

N.N.[Cl][Pt][Cl] [cisplatin]
Relatively Cell inhibition of vehicle control(%) ([1]; cisplatin 0.048 µM only (LB-1 plate)): -11.07%
Relatively Cell inhibition of vehicle control(%) [1, 11]: -7.42%
Relatively Cell inhibition of vehicle control(%) ([1]; cisplatin 1.2 µM only (LB-1 plate)): -13.28%
Relatively Cell inhibition of vehicle control(%) [1, 12]: -9.21%
Relatively Cell inhibition of vehicle control(%) ([1]; cisplatin 6 µM only (LB-1 plate)): 12.99%
Relatively Cell inhibition of vehicle control(%) [1, 13]: 19.01%
Relatively Cell inhibition of vehicle control(%) ([1]; cisplatin 30 µM only (LB-1 plate)): 53.09%
Relatively Cell inhibition of vehicle control(%) [1, 14]: 61.54%
Relatively Cell inhibition of vehicle control(%) ([2]; Cis 0.048 µM only): -11.79%
Relatively Cell inhibition of vehicle control(%) ([2]; Cis 1.2 µM only): 19.41%
Relatively Cell inhibition of vehicle control(%) ([2]; Cis 6 µM only): 49.43%
Relatively Cell inhibition of vehicle control(%) ([2]; Cis 30 µM only): 79.85%
Relatively Cell inhibition of vehicle control ([2]; cisplatin 0.048 µM only): -4.42%
Relatively Cell inhibition of vehicle control ([2]; cisplatin 1.2 µM only): 16.43%
Relatively Cell inhibition of vehicle control ([2]; cisplatin 6 µM only): 42.34%
Relatively Cell inhibition of vehicle control ([2]; cisplatin 30 µM only): 66.79%
Relatively Cell inhibition of vehicle control(%) ([3]; cisplatin 0.048 µM only): 1.97%
Relatively Cell inhibition of vehicle control(%) [3, 11]: 0.89%
Relatively Cell inhibition of vehicle control(%) ([3]; cisplatin 1.2 µM only): 11.78%
Relatively Cell inhibition of vehicle control(%) [3, 12]: 15.05%
Relatively Cell inhibition of vehicle control(%) ([3]; cisplatin 6 µM only): 46.78%
Relatively Cell inhibition of vehicle control(%) [3, 13]: 58.90%
Relatively Cell inhibition of vehicle control(%) ([3]; cisplatin 30 µM only): 83.20%
Relatively Cell inhibition of vehicle control(%) [3, 14]: 86.28%
Relatively Cell inhibition of vehicle control(%) ([4]; Cis 0.048 µM only (LB-1 matrix)): -0.61%
Relatively Cell inhibition of vehicle control(%) ([4]; Cis 0.048 µM only (myricetin matrix)): 0.65%
Relatively Cell inhibition of vehicle control(%) ([4]; Cis 1.2 µM only (LB-1 matrix)): 7.66%
Relatively Cell inhibition of vehicle control(%) ([4]; Cis 1.2 µM only (myricetin matrix)): 17.32%
Relatively Cell inhibition of vehicle control(%) ([4]; Cis 6 µM only (LB-1 matrix)): 50.05%
Relatively Cell inhibition of vehicle control(%) ([4]; Cis 6 µM only (myricetin matrix)): 55.97%
Relatively Cell inhibition of vehicle control(%) ([4]; Cis 30 µM only (LB-1 matrix)): 88.98%
Relatively Cell inhibition of vehicle control(%) ([4]; Cis 30 µM only (myricetin matrix)): 85.03%
Relatively Cell inhibition of vehicle control(%) ([5]; 0.048 µM cisplatin only (LB-1 0)): 1.63%
Relatively Cell inhibition of vehicle control(%) ([5]; 0.048 µM cisplatin only (myricetin 0)): 0.23%
Relatively Cell inhibition of vehicle control(%) ([5]; 1.2 µM cisplatin only (LB-1 0)): -1.67%
Relatively Cell inhibition of vehicle control(%) ([5]; 1.2 µM cisplatin only (myricetin 0)): 0.07%
Relatively Cell inhibition of vehicle control(%) ([5]; 6 µM cisplatin only (LB-1 0)): -0.49%
Relatively Cell inhibition of vehicle control(%) ([5]; 6 µM cisplatin only (myricetin 0)): 11.28%
Relatively Cell inhibition of vehicle control(%) ([5]; 30 µM cisplatin only (LB-1 0)): 22.74%
Relatively Cell inhibition of vehicle control(%) ([5]; 30 µM cisplatin only (myricetin 0)): 36.54%
inhibition rate ([6]; 30 µM cisplatin only (LB-1 0), 72 h): 65.03%
Relatively Cell inhibition of vehicle control(%) ([6]; cisplatin 0.048 µM only (myricetin 0)): 1.46%
Relatively Cell inhibition of vehicle control(%) ([6]; cisplatin 1.2 µM only (myricetin 0)): 0.61%
Relatively Cell inhibition of vehicle control(%) ([6]; cisplatin 6 µM only (myricetin 0)): 33.19%
Relatively Cell inhibition of vehicle control(%) ([6]; cisplatin 30 µM only (myricetin 0)): 77.27%
Relatively Cell inhibition of vehicle control(%) ([6]; Cis 0.048 µM only): 0.17%
Relatively Cell inhibition of vehicle control(%) ([6]; Cis 1.2 µM only): 1.57%
Relatively Cell inhibition of vehicle control(%) ([6]; Cis 6 µM only): 33.27%
Relatively Cell inhibition of vehicle control(%) ([6]; Cis 30 µM only): 65.03%
Relatively Cell inhibition of vehicle control(%) ([7]; Cis 0.048 µM only (LB-1 0)): 2.74%
Relatively Cell inhibition of vehicle control(%) ([7]; Cis 0.048 µM only (Myr 0)): -4.21%
Relatively Cell inhibition of vehicle control(%) ([7]; Cis 1.2 µM only (LB-1 0)): 6.85%
Relatively Cell inhibition of vehicle control(%) ([7]; Cis 1.2 µM only (Myr 0)): 6.63%
Relatively Cell inhibition of vehicle control(%) ([7]; Cis 6 µM only (LB-1 0)): 19.05%
Relatively Cell inhibition of vehicle control(%) ([7]; Cis 6 µM only (Myr 0)): 20.8%
Relatively Cell inhibition of vehicle control(%) ([7]; Cis 30 µM only (LB-1 0)): 52.83%
Relatively Cell inhibition of vehicle control(%) ([7]; Cis 30 µM only (Myr 0)): 66.86%
Relatively Cell inhibition of vehicle control ([8]; cisplatin 0.048 µM only (LB-1 table)): -8.71%
Relatively Cell inhibition of vehicle control ([8]; cisplatin 0.048 µM only (myricetin table)): -7.69%
Relatively Cell inhibition of vehicle control ([8]; cisplatin 1.2 µM only (LB-1 table)): -10.98%
Relatively Cell inhibition of vehicle control ([8]; cisplatin 1.2 µM only (myricetin table)): -2.56%
Relatively Cell inhibition of vehicle control ([8]; cisplatin 6 µM only (LB-1 table)): 29.88%
Relatively Cell inhibition of vehicle control ([8]; cisplatin 6 µM only (myricetin table)): 29.55%
Relatively Cell inhibition of vehicle control ([8]; cisplatin 30 µM only (LB-1 table)): 70.68%
Relatively Cell inhibition of vehicle control ([8]; cisplatin 30 µM only (myricetin table)): 76.71%
Relatively Cell inhibition of vehicle control(%) ([9]; Cis 0.048 µM only (LB-1 0)): 0.45%
Relatively Cell inhibition of vehicle control(%) ([9]; Cis 1.2 µM only (LB-1 0)): 5.31%
Relatively Cell inhibition of vehicle control(%) ([9]; Cis 6 µM only (LB-1 0)): 60.32%
Relatively Cell inhibition of vehicle control(%) ([9]; Cis 30 µM only (LB-1 0)): 90.04%
Relatively Cell inhibition of vehicle control ([9]; cisplatin 0.048 µM only): -1.09%
Relatively Cell inhibition of vehicle control ([9]; cisplatin 1.2 µM only): 10.33%
Relatively Cell inhibition of vehicle control ([9]; cisplatin 6 µM only): 67.62%
Relatively Cell inhibition of vehicle control ([9]; cisplatin 30 µM only): 86.78%
Relatively Cell inhibition of vehicle control(%) ([10]; Cis 0.048 µM only (LB-1 0)): 7.78%
Relatively Cell inhibition of vehicle control(%) ([10]; Cis 0.048 µM only (Myr 0)): 5.10%
Relatively Cell inhibition of vehicle control(%) ([10]; Cis 1.2 µM only (LB-1 0)): 5.53%
Relatively Cell inhibition of vehicle control(%) ([10]; Cis 1.2 µM only (Myr 0)): 22.76%
Relatively Cell inhibition of vehicle control(%) ([10]; Cis 6 µM only (LB-1 0)): 33.22%
Relatively Cell inhibition of vehicle control(%) ([10]; Cis 6 µM only (Myr 0)): 48.92%
Relatively Cell inhibition of vehicle control(%) ([10]; Cis 30 µM only (LB-1 0)): 81.54%
Relatively Cell inhibition of vehicle control(%) ([10]; Cis 30 µM only (Myr 0)): 90.46%
